Source: US11072581B2, “N-acyl-arylsulfonamide derivatives as aminoacyl-tRNA synthetase inhibitors” (Oxford Drug Design Limited, priority 2015, dated 2021)
Structures can show the parent of a compound that is named as a salt. Where two headings read alike, the source gives them in different places.

Legend:
[1] = biological target: T1, EcoLRS (leucyl-tRNA synthetase from Escherichia coli) (Escherichia coli, UniProt P07813); assay: aaRS aminoacylation assay (ATP consumption), EcoLRS; format: biochemical
T1 construct: made in house; host or cells: Escherichia coli M15
T1 sequence (P07813 whole entry): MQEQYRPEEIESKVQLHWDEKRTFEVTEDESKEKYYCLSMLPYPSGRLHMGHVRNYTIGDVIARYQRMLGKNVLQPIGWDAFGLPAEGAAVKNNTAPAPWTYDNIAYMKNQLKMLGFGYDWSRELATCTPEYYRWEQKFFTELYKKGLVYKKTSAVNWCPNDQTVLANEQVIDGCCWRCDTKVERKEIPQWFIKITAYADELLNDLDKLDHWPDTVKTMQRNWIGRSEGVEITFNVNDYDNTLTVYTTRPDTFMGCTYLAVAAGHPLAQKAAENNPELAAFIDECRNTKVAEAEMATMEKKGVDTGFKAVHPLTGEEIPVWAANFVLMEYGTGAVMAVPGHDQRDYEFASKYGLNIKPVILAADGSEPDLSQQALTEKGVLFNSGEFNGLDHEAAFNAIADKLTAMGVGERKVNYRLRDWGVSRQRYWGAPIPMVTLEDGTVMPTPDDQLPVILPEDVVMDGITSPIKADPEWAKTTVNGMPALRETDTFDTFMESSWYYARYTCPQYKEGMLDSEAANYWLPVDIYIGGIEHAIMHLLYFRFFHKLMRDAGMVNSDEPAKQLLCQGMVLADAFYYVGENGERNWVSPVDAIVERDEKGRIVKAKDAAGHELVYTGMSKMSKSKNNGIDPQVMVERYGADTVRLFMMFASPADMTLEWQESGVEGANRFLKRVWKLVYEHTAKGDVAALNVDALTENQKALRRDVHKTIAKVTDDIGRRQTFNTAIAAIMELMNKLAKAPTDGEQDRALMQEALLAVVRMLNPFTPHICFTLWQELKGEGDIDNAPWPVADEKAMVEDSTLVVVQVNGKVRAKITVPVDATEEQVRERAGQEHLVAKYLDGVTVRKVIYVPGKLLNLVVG
Description: (§1) The compounds have been tested for antibacterial activity in vitro as aminoacyl-tRNA synthetases (aaRS) inhibitors following the following process.
(§2) Leucyl-, valyl- and isoleucyl-tRNA synthetases (LRS, VRS and IRS, respectively) from Escherichia coli (Eco) and Staphylococcus aureus (Sau).
(§3) Escherichia coli M15 cells transformed with plasmid pQE-60, or pQE-70, containing the open-reading frame sequence of one targeted aaRS were induced with 1 mM IPTG (Isopropyl β-D-1-thiogalactopyranoside) for 3 h at 37° C. Bacterial cells were harvested and lysed with 20 mM NaH2PO4 (pH 8.0), 200 mM NaCl, 10 mM imidazole and protease inhibitor cocktail (Roche). Pathogenic aaRS was purified by nickel affinity standard chromatography. Protein concentration was determined by spectrophotometry.
(§4) tRNA^Leu, tRNA^Val and tRNA^Ile from E. coli and S. aureus were transcribed in vitro for 4 h at 37° C. using T7 RNA polymerase. Transcription reaction contained 40 mM Tris-HCl (pH 8.0), 22 mM MgCl2, 1 mM spermidine, 5 mM DTT, 0.01% Triton X-100, 4 mM GTP, 4 mM ATP, 4 mM UTP, 4 mM CTP, 16 mM GMP, […] T7 RNA polymerase and 150 μg BstNI digested plasmid. Once finished, the reaction was applied on a 6% polyacrylamide-8 M urea denaturing gel to purify the transcribed tRNA and discard any impurities. Purified tRNA was quantified with Nanodrop 2000 (Thermo Scientific).
(§5) The aminoacylation reaction catalyzed by aminoacyl-tRNA synthetases (aaRS) takes place in two steps. In the first step, aaRS activates its cognate amino acid with ATP; and in the second step the activated amino acid is loaded to its corresponding tRNA. This reaction can be summarized as follows: ARS+aa+ATP=ARS-aa-AMP+PPi ARS-aa-AMP+tRNA=aa-tRNA+AMP+ARS [2] (ARS, Aminoacyl-tRNA synthetase; aa, amino acid; ARS-aa-AMP, enzyme-bound to aminoacyl-adenylate; aa-tRNA, aminoacyl-tRNA).
(§6) The activity of the pathogenic aaRSs was monitored by measuring the ATP consumption rate, since this consumption is directly proportional to the activity of the aaRS. If the tested compound, at a single point concentration of 50 μM, is inhibiting the aminoacylation reaction, there is a decrease in the ATP consumption, compared to the control reaction without compound, allowing the calculation of an inhibition ratio.
(§7) When the inhibition ratio for a given compound was above 80%, IC50 determination was performed with the same enzymatic assay (using the commercial kit Kinase RR from BioThema AB, Sweden) in the presence of serial dilutions of inhibitor. Known inhibitors of LRS, VRS or IRS were used as a positive control of the assay. The IC50 was calculated based on nonlinear regression analysis.

[2] = biological target: T2, EcoIRS (isoleucyl-tRNA synthetase from Escherichia coli) (Escherichia coli, UniProt P00956); assay: aaRS aminoacylation assay (ATP consumption), EcoIRS; format: biochemical; settings: i.a. = inactive at a concentration below 50 uM
T2 construct: made in house; host or cells: Escherichia coli M15
T2 sequence (P00956 whole entry): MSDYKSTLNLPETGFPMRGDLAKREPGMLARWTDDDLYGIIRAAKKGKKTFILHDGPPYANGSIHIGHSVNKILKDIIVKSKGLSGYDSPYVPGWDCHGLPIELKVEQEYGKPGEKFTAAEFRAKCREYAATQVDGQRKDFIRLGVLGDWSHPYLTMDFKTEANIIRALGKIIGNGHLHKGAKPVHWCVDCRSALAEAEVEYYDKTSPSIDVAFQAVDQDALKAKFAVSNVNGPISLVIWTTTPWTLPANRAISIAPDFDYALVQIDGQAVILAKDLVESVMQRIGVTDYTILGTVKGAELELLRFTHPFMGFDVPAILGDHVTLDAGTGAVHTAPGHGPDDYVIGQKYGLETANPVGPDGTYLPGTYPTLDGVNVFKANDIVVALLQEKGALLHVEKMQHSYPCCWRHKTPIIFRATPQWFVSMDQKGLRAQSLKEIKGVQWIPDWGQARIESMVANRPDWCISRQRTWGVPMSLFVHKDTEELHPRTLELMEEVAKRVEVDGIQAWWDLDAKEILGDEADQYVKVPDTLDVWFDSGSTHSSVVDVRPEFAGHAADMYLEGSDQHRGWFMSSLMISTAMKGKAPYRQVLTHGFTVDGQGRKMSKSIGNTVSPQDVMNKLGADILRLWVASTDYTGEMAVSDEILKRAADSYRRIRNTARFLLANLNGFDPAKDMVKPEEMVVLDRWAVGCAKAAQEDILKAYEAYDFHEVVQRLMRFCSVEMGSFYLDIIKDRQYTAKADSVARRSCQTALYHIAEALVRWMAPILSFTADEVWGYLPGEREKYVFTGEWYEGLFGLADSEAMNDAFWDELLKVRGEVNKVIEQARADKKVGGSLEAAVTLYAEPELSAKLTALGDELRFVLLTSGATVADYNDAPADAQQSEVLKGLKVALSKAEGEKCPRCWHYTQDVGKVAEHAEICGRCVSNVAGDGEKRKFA
Description: as §1, §2, §3, §4, §5, §6, §7

[3] = biological target: T3, SauLRS (leucyl-tRNA synthetase from Staphylococcus aureus) (Staphylococcus aureus, UniProt Q2FXH2); assay: aaRS aminoacylation assay (ATP consumption), SauLRS; format: biochemical
T3 construct: made in house; host or cells: Escherichia coli M15
T3 sequence (Q2FXH2 1-805): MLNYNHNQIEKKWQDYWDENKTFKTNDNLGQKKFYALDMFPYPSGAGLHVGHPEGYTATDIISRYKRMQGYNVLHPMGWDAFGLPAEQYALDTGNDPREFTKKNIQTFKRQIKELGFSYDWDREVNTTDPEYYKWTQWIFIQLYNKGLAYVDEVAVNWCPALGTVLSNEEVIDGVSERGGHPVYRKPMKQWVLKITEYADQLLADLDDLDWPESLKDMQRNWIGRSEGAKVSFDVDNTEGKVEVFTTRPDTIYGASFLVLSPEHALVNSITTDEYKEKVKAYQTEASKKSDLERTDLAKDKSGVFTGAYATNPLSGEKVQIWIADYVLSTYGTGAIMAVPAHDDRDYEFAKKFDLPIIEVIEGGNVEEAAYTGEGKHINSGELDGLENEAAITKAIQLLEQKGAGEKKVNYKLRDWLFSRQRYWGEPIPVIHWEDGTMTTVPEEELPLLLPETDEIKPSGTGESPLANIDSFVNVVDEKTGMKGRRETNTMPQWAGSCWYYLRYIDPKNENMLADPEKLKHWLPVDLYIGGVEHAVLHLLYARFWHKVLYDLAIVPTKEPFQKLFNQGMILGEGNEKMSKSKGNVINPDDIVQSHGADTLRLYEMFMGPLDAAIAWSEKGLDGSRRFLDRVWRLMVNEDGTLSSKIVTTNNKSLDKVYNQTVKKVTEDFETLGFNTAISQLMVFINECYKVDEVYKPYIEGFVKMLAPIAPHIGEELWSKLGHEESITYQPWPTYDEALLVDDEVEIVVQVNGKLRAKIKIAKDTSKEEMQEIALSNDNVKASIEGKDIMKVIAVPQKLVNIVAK
Description: as §1, §2, §3, §4, §5, §6, §7

[4] = i.a. = inactive at a concentration below 50 uM
[5] = i.a. = inactive at a concentration below 50 uM, read-out: IC50 EcoLRS
[6] = i.a. = inactive at a concentration below 50 uM, read-out: IC50 SauLRS

Structure (SMILES)	IC50 [1] [µM]	IC50 EcoIRS [2]	melting point	IC50 SauLRS [3, 4]	IC50 [1, 5] [µM]	IC50 [3, 6] [µM]	IC50 EcoLRS [1, 4]	IC50 [3] [µM]
N[C@@H](CC1CC1)C(=O)NS(=O)(=O)c1cccc(-c2ccccc2)c1 (racemic) [Compound 5.10]	47.6	i.a	214.4 °C	i.a	–	–	–	–
CC(C)C[C@H](N)C(=O)NS(=O)(=O)c1ccccc1 [Compound 5.1, (S)-2-amino-4-methyl-N-(phenylsulfonyl)pentanamide hydrochloride]	–	i.a.	–	–	0.035	5.4	–	–
CC(C)C[C@H](N)C(=O)NS(=O)(=O)c1cccc(Cl)c1 [Compound 5.4]	0.031	i.a	–	–	–	0.92	–	–
CC(C)C[C@H](N)C(=O)NS(=O)(=O)c1ccccc1Cl [Compound 5.5]	0.121	i.a	–	–	–	13.2	–	–
CC(C)C[C@H](N)C(=O)NS(=O)(=O)c1ccccc1F [Compound 5.6]	0.233	i.a	–	–	–	17	–	–
CCCCc1ccc(S(=O)(=O)NC(=O)[C@@H](N)CC(C)C)cc1 [Compound 5.7]	0.668	i.a	–	–	–	4.9	–	–
CC(C)C[C@H](N)C(=O)NS(=O)(=O)c1cccc2ccccc12 [Compound 5.13]	0.059	i.a	–	–	–	16.1	–	–
CC(C)C[C@H](N)C(=O)NS(=O)(=O)c1cccc2c(N(C)C)cccc12 [Compound 5.16, (S)-2-amino-N-((5-(dimethylamino)naphthalen-1-yl)sulfonyl)-4-methylpentanamide hydrochloride]	4.1	i.a	–	i.a	–	–	–	–
CC(C)C[C@H](N)C(=O)NS(=O)(=O)c1cccc2cccnc12 [Compound 5.19]	0.78	i.a	–	–	–	16.8	–	–
CC(C)C[C@H](N)C(=O)NS(=O)(=O)c1ccc(Br)c2ccncc12 [Compound 5.22, trifluoroacetate]	2.4	i.a	–	–	–	11.5	–	–
CC(C)C[C@H](N)C(=O)NS(=O)(=O)c1cccc2cc(C(N)=O)ncc12 [Compound 5.24, 8-(N-(L-Leucyl)sulfamoyl)isoquinoline-3-carboxamide]	0.011	i.a	–	–	–	8.5	–	–
CC(C)C[C@H](N)C(=O)NS(=O)(=O)c1cccc2c1CNCC2 [Compound 5.26, (S)-2-amino-4-methyl-N-((1,2,3,4-tetrahydroisoquinolin-8-yl)sulfonyl) pentanamide trifluoroacetate]	0.176	i.a	–	–	–	20	–	–
CNc1cc(-c2cccc(S(=O)(=O)NC(=O)[C@@H](N)CC(C)C)c2)nc(N)n1 [Compound 5.27]	0.051	i.a	–	–	–	0.26	–	–
CC(C)C[C@H](N)C(=O)NS(=O)(=O)c1cccc(-c2cc(N(C)C)nc(N)n2)c1 [Compound 5.28]	1.6	i.a	–	–	–	4.8	–	–
CSc1cc(-c2cccc(S(=O)(=O)NC(=O)[C@@H](N)CC(C)C)c2)nc(N)n1 [Compound 5.29]	0.021	i.a	–	–	–	1.2	–	–
Cc1cc(-c2cccc(S(=O)(=O)NC(=O)[C@@H](N)CC3CCC3)c2)nc(N)n1 [Compound 5.31]	6.2	i.a	–	i.a	–	–	–	–
Cc1cc(-c2cccc(S(=O)(=O)NC(=O)[C@@H](N)CC3CCCCC3)c2)nc(N)n1 [Compound 5.34]	–	i.a	–	i.a	–	–	i.a	–

Structure (SMILES)	IC50 [1] [µM]	IC50 EcoIRS [2]	melting point	IC50 SauLRS [3, 4]	IC50 [1, 5] [µM]	IC50 [3, 6] [µM]	IC50 EcoLRS [1, 4]	IC50 [3] [µM]
Cc1cc(-c2cccc(S(=O)(=O)NC(=O)[C@@H](N)CC(C)C)c2)nc(N)n1 [Compound 5.35, (S)-2-amino-N-((3-(2-amino-6-methylpyrimidin-4-yl)phenyl)sulfonyl)-4-methylpentanamide]	0.014	–	241 to 242 °C (dec.)	–	–	4.34	–	–
COc1cc(-c2cccc(S(=O)(=O)NC(=O)[C@@H](N)CC(C)C)c2)nc(N)n1 [Compound 5.36]	0.012	–	87 to 88 °C (dec.)	–	–	3	–	–
CC(C)C[C@H](N)C(=O)NS(=O)(=O)c1cccc(-c2ccnc(N)n2)c1 [Compound 5.37]	–	–	224 to 226 °C (dec.)	–	0.054	2.18	–	–
CC(C)C[C@H](N)C(=O)NS(=O)(=O)c1cccc(-c2nc(N)nc3nc[nH]c23)c1 [Compound 5.38]	0.084	–	117 °C (dec.)	–	–	1.11	–	–
Cc1cc(-c2cccc(S(=O)(=O)NC(=O)[C@@H](N)CC(C)C)c2)ncn1 [Compound 5.39]	0.045	–	246 °C	–	–	2	–	–
CC[C@H](C)[C@H](N)C(=O)NS(=O)(=O)c1cccc(-c2cc(C)nc(N)n2)c1 [Compound 5.40]	21.8	–	97 °C	i.a.	–	–	–	–
CC(C)C[C@H](N)C(=O)NS(=O)(=O)c1cccc(-c2cc(-c3ccccc3)nc(N)n2)c1 [Compound 5.41]	0.22	–	186 to 188 °C (dec.)	–	–	3	–	–
CC(C)C[C@H](N)C(=O)NS(=O)(=O)c1cccc(-c2ccncc2)c1 [Compound 5.42]	–	–	151 °C (dec.)	–	0.013	–	–	0.81
CC(C)C[C@H](N)C(=O)NS(=O)(=O)c1cccc(-c2ccnc(N)c2)c1 [Compound 5.43]	0.002	–	141 °C (dec.)	–	–	0.33	–	–
CC(C)C[C@H](N)C(=O)NS(=O)(=O)c1cccc(-c2cccc(N)n2)c1 [Compound 5.44]	0.006	–	148 °C (dec.)	–	–	1.64	–	–
CC(C)C[C@H](N)C(=O)NS(=O)(=O)c1cccc(-c2cc(N)nc(N)n2)c1 [Compound 5.45]	0.02	–	234 °C (dec.)	–	–	0.72	–	–
CC(C)C[C@H](N)C(=O)NS(=O)(=O)c1cccc(-c2cc(N)ncn2)c1 [Compound 5.46]	0.01	–	–	–	–	1.3	–	–
CCc1cc(-c2cccc(S(=O)(=O)NC(=O)[C@@H](N)CC(C)C)c2)nc(N)n1 [Compound 5.47]	0.011	–	–	–	–	2.15	–	–
CC(C)C[C@H](N)C(=O)NS(=O)(=O)c1cccc(-c2ncnc(N)n2)c1 [Compound 5.48]	0.0034	–	–	–	–	0.53	–	–
CC(C)C[C@H](N)C(=O)NS(=O)(=O)c1cccc(-c2ccnc(Cl)n2)c1 [Compound 5.49]	0.064	–	231 to 238 °C (dec.)	–	–	6.23	–	–
CC(C)C[C@H](N)C(=O)NS(=O)(=O)c1cccc(-c2ccnc(O)n2)c1 [Compound 5.50]	0.063	–	191 to 221 °C (dec.)	–	–	13.9	–	–
